Active and inactive are the calls of the source. The calls are words filed in the database; no cut-off is given here.
How the values were obtained:
Toll-like receptor 4 [1] = molecular target: T1, Toll-like receptor 4 (Homo sapiens, UniProt O00206); assay: Antagonist activity at TLR4 in human THP1 cells assessed as inhibition of LPS-stimulated IL-6 mRNA level at 10 uM after 16 hrs by RT-PCR method; format: cell-based
Toll-like receptor 4 [2] = molecular target: T1, Toll-like receptor 4; assay: Antagonist activity at TLR4 in human THP1 cells assessed as inhibition of LPS-stimulated RANTES mRNA level at 10 uM after 16 hrs by RT-PCR method; format: cell-based
[3] = molecular target: Toll-like receptor 3 (Homo sapiens) (UniProt O15455); assay: Antagonist activity at TLR3 in human THP1 cells assessed as inhibition of poly IC-stimulated IL-6 mRNA level at 10 uM after 16 hrs by RT-PCR method; format: cell-based
Chain of Toll-like receptor 3 (Homo sapiens) (O15455 whole entry): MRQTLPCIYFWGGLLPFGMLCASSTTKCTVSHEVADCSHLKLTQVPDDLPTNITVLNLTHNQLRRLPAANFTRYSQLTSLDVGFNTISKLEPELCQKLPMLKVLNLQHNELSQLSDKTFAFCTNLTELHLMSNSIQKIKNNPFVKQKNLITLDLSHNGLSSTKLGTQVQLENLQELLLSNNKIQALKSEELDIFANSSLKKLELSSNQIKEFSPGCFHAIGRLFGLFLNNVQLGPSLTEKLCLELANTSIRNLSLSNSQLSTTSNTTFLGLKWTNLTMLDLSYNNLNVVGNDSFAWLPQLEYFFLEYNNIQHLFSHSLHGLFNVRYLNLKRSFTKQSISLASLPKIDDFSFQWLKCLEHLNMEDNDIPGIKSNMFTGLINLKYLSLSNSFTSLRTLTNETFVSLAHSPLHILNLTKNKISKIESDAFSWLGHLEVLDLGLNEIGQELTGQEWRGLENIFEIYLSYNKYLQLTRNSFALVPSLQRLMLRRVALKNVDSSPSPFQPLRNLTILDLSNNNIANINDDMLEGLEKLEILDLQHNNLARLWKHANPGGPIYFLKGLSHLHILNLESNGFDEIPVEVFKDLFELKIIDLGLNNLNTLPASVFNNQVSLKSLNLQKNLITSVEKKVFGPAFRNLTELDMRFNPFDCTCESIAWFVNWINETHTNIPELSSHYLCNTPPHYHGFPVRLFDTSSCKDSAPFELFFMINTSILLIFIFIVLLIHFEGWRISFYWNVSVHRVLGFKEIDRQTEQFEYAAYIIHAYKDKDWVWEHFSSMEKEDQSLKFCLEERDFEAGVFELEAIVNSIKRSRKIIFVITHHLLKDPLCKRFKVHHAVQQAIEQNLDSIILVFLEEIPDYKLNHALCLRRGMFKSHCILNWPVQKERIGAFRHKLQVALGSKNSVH

[4] = molecular target: Toll-like receptor 3 (Homo sapiens) (UniProt O15455); assay: Antagonist activity at TLR3 in human THP1 cells assessed as inhibition of poly IC-stimulated RANTES mRNA level at 10 uM after 16 hrs by RT-PCR method; format: cell-based
[5] = molecular target: Toll-like receptor 2 (Homo sapiens) (UniProt O60603); assay: Antagonist activity at TLR2 in human THP1 cells assessed as inhibition of PGN-stimulated IL-6 mRNA level at 10 uM after 16 hrs by RT-PCR method; format: cell-based
Chain of Toll-like receptor 2 (Homo sapiens) (O60603 whole entry): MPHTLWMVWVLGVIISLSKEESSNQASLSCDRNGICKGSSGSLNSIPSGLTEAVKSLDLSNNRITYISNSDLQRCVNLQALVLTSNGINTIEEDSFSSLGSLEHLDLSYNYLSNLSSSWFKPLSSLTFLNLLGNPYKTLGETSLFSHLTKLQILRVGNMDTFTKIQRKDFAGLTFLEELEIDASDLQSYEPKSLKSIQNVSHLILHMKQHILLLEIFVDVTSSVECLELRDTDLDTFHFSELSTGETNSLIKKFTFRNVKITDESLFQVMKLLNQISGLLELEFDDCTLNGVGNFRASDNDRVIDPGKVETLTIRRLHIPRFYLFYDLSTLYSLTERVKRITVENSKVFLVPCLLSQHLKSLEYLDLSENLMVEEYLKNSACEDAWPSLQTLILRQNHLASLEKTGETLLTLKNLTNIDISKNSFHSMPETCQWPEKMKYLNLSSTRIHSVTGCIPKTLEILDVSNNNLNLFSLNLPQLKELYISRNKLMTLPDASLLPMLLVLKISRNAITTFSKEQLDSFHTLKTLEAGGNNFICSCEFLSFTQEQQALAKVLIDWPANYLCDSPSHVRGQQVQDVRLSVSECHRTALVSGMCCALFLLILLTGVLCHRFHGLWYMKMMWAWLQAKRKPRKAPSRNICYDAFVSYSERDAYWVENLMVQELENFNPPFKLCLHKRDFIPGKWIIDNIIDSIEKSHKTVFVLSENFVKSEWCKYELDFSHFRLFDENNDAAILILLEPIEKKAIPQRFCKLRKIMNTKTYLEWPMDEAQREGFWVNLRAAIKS

[6] = molecular target: Toll-like receptor 2 (Homo sapiens) (UniProt O60603); assay: Antagonist activity at TLR2 in human THP1 cells assessed as inhibition of PGN-stimulated RANTES mRNA level at 10 uM after 16 hrs by RT-PCR method; format: cell-based
Toll-like receptor 4 [7] = molecular target: T1, Toll-like receptor 4; assay: Antagonist activity at TLR4 in human THP1 cells assessed as inhibition of LPS-stimulated IL-6 level at 10 uM by bead based immunoassay; format: cell-based
[8] = molecular target: Toll-like receptor 2 (Homo sapiens) (UniProt O60603); assay: Antagonist activity at TLR2 in human THP1 cells assessed as inhibition of PGN-stimulated IL-1beta level at 10 uM by bead based immunoassay; format: cell-based
[9] = molecular target: Transcription factor p65 (Homo sapiens) (UniProt Q04206); assay: Upregulation of NF-kB p65 phosphorylation (unknown origin) expressed in human AD293 cells at 10 uM after 3 hrs by Western blot analysis; format: cell-based
Chain of Transcription factor p65 (Homo sapiens) (Q04206 whole entry): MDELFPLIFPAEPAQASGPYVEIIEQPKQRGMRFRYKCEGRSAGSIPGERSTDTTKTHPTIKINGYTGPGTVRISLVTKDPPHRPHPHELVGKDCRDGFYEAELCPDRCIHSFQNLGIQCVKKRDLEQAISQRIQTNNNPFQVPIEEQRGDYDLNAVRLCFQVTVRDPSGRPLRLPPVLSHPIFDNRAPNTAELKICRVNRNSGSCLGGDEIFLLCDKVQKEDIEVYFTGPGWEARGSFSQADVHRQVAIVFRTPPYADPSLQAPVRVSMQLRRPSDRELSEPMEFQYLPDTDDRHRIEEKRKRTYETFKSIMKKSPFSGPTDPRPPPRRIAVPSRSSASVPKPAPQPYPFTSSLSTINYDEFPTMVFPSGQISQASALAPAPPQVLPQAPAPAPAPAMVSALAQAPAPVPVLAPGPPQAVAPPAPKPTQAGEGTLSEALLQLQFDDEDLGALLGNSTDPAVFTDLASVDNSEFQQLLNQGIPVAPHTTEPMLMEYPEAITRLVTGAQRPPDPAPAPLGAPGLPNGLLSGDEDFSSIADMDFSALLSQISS

Toll-like receptor 4 [10] = molecular target: T1, Toll-like receptor 4; assay: Antagonist activity at TLR4 in human THP1 cells assessed as inhibition of LPS-stimulated NFkappaB p65 protein expression at 10 uM after 3 hrs by Western blot analysis; format: cell-based
Toll-like receptor 4 [11] = molecular target: T1, Toll-like receptor 4; assay: Antagonist activity at TLR4 in human THP1 cells assessed as increase in LPS-stimulated NFkappaB p65 phosphorylation at 10 uM after 3 hrs by Western blot analysis; format: cell-based
THP-1 [12] = assay: Downregulation of IkBalpha protein expression in LPS-stimulated human THP1 cells at 10 uM after 3 hrs by Western blot analysis; format: functional, cell-based
THP-1 [13] = assay: Downregulation of IkBalpha protein expression in human THP1 cells at 10 uM after 3 hrs by Western blot analysis; format: functional, cell-based
Toll-like receptor 4 [14] = molecular target: T1, Toll-like receptor 4; assay: Antagonist activity at TLR4 in human THP1 cells assessed as inhibition of LPS-stimulated NF-kB canonical signaling pathway by measuring decrease in IkBalpha phosphorylation at 10 uM after 3 hrs by Western blot analysis; format: cell-based
THP-1 [15] = assay: Upregulation of IKKalpha protein expression in human THP1 cells at 10 uM after 3 hrs by Western blot analysis; format: functional, cell-based
[16] = molecular target: T2, Nuclear factor NF-kappa-B p100 subunit (Homo sapiens) (UniProt Q00653); assay: Effect on p100 phosphorylation in human THP1 cells at 10 uM after 3 hrs by Western blot analysis; format: cell-based
T2 sequence (whole entry): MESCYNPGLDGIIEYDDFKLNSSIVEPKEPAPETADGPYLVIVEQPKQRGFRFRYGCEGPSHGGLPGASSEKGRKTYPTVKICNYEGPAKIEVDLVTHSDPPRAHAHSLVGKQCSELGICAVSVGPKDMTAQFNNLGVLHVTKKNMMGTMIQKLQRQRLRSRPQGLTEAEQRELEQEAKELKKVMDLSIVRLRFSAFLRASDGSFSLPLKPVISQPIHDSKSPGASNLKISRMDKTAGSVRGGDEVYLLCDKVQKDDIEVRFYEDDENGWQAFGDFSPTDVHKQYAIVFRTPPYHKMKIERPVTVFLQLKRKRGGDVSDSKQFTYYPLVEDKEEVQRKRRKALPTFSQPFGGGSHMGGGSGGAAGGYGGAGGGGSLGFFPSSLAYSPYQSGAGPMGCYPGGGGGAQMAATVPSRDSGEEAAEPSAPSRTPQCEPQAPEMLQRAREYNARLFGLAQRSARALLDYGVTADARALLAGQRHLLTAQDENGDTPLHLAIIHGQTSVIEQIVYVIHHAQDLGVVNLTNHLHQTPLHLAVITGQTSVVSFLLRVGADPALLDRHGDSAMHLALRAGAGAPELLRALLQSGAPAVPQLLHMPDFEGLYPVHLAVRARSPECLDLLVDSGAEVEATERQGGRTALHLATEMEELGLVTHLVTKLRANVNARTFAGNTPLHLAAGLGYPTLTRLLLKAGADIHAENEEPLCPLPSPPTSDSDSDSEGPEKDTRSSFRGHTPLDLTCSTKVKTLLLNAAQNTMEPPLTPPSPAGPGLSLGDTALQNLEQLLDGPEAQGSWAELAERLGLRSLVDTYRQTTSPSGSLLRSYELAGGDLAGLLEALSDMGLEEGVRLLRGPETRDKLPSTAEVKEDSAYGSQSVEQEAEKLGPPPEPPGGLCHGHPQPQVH

Toll-like receptor 4 [17] = molecular target: T1, Toll-like receptor 4; assay: Antagonist activity at TLR4 in human THP1 cells harboring human TRAF6 assessed as inhibition of LPS-stimulated IL-6 level at 10 uM by bead based immunoassay; format: cell-based
Toll-like receptor 4 [18] = molecular target: T1, Toll-like receptor 4; assay: Antagonist activity at TLR4 in human THP1 cells assessed as inhibition of LPS-stimulated IL-6 mRNA level after 16 hrs by RT-PCR method; format: cell-based
Toll-like receptor 4 [19] = molecular target: T1, Toll-like receptor 4; assay: Antagonist activity at TLR4 in human THP1 cells assessed as inhibition of LPS-stimulated RANTES mRNA level after 16 hrs by RT-PCR method; format: cell-based
[20] = molecular target: Toll-like receptor 3 (Homo sapiens) (UniProt O15455); assay: Antagonist activity at TLR3 in human THP1 cells assessed as inhibition of poly IC-stimulated IL-6 mRNA level after 16 hrs by RT-PCR method; format: cell-based
[21] = molecular target: Toll-like receptor 3 (Homo sapiens) (UniProt O15455); assay: Antagonist activity at TLR3 in human THP1 cells assessed as inhibition of poly IC-stimulated RANTES mRNA level after 16 hrs by RT-PCR method; format: cell-based
[22] = molecular target: Toll-like receptor 2 (Homo sapiens) (UniProt O60603); assay: Antagonist activity at TLR2 in human THP1 cells assessed as inhibition of PGN-stimulated IL-6 mRNA level after 16 hrs by RT-PCR method; format: cell-based
[23] = molecular target: Toll-like receptor 2 (Homo sapiens) (UniProt O60603); assay: Antagonist activity at TLR2 in human THP1 cells assessed as inhibition of PGN-stimulated RANTES mRNA level after 16 hrs by RT-PCR method; format: cell-based

T1 sequence (O00206 whole entry): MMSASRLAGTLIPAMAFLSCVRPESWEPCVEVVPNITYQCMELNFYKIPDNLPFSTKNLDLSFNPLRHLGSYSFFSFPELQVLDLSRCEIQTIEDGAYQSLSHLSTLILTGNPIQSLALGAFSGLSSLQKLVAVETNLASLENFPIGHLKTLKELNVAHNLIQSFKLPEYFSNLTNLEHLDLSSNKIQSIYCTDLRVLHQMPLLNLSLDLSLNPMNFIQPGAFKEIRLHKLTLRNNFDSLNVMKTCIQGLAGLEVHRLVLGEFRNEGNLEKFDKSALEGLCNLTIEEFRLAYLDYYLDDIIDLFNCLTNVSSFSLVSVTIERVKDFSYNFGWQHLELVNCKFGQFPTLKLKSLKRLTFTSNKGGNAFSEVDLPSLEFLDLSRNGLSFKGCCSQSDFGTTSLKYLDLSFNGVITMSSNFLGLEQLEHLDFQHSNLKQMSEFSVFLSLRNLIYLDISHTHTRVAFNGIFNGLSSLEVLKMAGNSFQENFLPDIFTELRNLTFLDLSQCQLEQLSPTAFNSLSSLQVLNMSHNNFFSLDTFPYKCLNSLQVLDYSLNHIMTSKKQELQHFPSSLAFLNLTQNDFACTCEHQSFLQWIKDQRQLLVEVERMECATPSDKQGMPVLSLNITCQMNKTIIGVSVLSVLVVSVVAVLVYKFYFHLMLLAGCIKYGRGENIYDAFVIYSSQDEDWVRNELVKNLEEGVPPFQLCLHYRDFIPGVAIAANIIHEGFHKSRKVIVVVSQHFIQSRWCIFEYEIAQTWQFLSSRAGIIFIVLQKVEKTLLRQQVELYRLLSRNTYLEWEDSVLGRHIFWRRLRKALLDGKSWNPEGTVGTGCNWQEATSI

What does the source list for `CC(=O)[C@]1(O)CC[C@@]2(O)[C@]1(C)[C@H](OC(=O)c1ccc(O)cc1)C[C@@H]1[C@@]3(C)CC[C@H](OC(=O)CCl)CC3=CC[C@]12O`?
inhibition (Toll-like receptor 4 [1]): Active; inhibition (Toll-like receptor 4 [2]): Active; inhibition [3]: Active; inhibition [4]: Active; inhibition [5]: Active; inhibition [6]: Active; inhibition (Toll-like receptor 4 [7]): Active; inhibition [8]: Active; Activity [9]: Active; inhibition (Toll-like receptor 4 [10]): Active; inhibition (Toll-like receptor 4 [11]): inactive; Activity (THP-1 [12]): Active; Activity (THP-1 [13]): Active; inhibition (Toll-like receptor 4 [14]): inactive; Activity (THP-1 [15]): Active; Activity [16]: inactive; inhibition (Toll-like receptor 4 [17]): inactive

Which results are given for `COc1ccc(/C=C/C(=O)O[C@H]2CC[C@@]3(C)C(=CC[C@]4(O)[C@@H]3C[C@@H](OC(=O)/C=C(\C)C(C)C)[C@@]3(C)[C@]4(O)CC[C@@]3(O)C(C)=O)C2)cc1`?
inhibition (Toll-like receptor 4 [18]): Dose-dependent effect; inhibition (Toll-like receptor 4 [19]): Dose-dependent effect; inhibition [20]: Dose-dependent effect; inhibition [21]: Dose-dependent effect; inhibition [22]: Dose-dependent effect; inhibition [23]: Dose-dependent effect; inhibition (Toll-like receptor 4 [7]): Active; inhibition [8]: Active; inhibition (Toll-like receptor 4 [11]): Active; Activity (THP-1 [15]): Active; Activity [16]: inactive; inhibition (Toll-like receptor 4 [17]): inactive

From ChEMBL document CHEMBL4033685, “C21-steroidal pregnane sapogenins and their derivatives as anti-inflammatory agents” (Bioorg Med Chem, 2017)
